Literature values, collected in patent US6200975A, “Substituted 1,2,4-triazolo[3,4-a]phthalazine derivatives as GABA alpha 5 ligands” (Merck Sharp & Dohme Limited, priority 1997, dated 2001).

Conditions: reported by McNamara and Skelton

SMILES: COC(=O)c1cc2c(cn1)[nH]c1ccccc12 [β-CCM]
- spatial learning in the Morris watermaze: enhanced spatial learning
